The values that follow come from patent publication US20210186989A1, “ENHANCED TRAINED IMMUNITY IN MYELOID CELLS BY SHIP-1 INHIBITION” (CENTRO NACIONAL DE INVESTIGACIONES CARDIOVASCULARES CARLOS …, priority 2018, published 2021).

In data set [1] the test system is mouse bone marrow-derived macrophages (BMDMs). Briefly: Trained immunity in vitro model, TNFα by ELISA after LPS. Type of data set: cell-based. Particulars: for boost of trained immunity (TNF alpha) in absence of SHIP-1: LysMΔSHIP-1 BMDMs, beta-glucan-trained, 30 min pre-incubation; for TNF-alpha overproduction in trained LysMΔSHIP-1 BMDMs: 30 min pre-incubation before beta-glucan training. The method, then:
BMDMs (10^5) were plated in 96-well plates (200-μl final volume, Corning) and stimulated with R10 or 100 μg/ml β-glucan (whole glucan particles, WGP, Biothera, Eagan, Minn.) for 24h. Then, cells were washed and rested 3 days in culture medium. At day 4, BMDMs were washed again and primed with 25 ng/ml IFNγ (BD Biosciences, San Jose, Calif.) for 24h. On day 5, a final wash was performed and cells were stimulated with R10 or 1 μg/ml Escherichia coli LPS (EK, Invivogen, San Diego, Calif.). After 24h, supernatants were collected for TNFα measurement by ELISA (Opteia ELISA kit, BD Biosciences).
When required, BMDMs were pre-incubated for 30 minutes prior to β-glucan training with 1.5 μM Syk inhibitor (R406, Hozel diagnostic, Cologne, Germany), […] Raf-1 inhibitor (GW5074, Sigma), 500 μM MTA (5′-Deoxy-5′-(methylthio)adenosine, Sigma), 6 μM Pargyline (Sigma) or SHIP-1 inhibitor (SHIPi, 3-α-aminocholestane, 3AC, Calbiochem, Darmstad, Germany) at the indicated doses. Inhibitors were also added in the first wash-out, before the resting period.
(§1) For TNFα normalization, the fold of cells in each condition was calculated as follows: (Live cell number in condition X)/(live cell number in non-trained WT condition). In case of SHIP-1 inhibition experiments, non-treated cells were used as reference. Thus, TNFα per cell number was normalized as (absolute TNFα value)/(fold of cells).

The test system of the next data set is mouse BMDMs. Briefly: BMDM viability in the training scheme (FACS, Hoechst 33258 exclusion). Type of data set: cell-based. The method, then:
To assess receptor expression and cell viability, 6·10^5 BMDMs were plated in non-treated 24-well plates (1200-μl final volume, Corning) and followed the training scheme described above. Dectin-1 expression was evaluated at day 0 prior to β-glucan addition. Cell viability and TLR4 expression were assessed on day 5 before LPS stimulation. At indicated times, cells were collected in PBS/EDTA and stained on ice-cold FACS Buffer (PBS/EDTA plus 3% FBS) for flow cytometry analysis.
Samples were stained with the appropriate antibody cocktails in ice-cold FACS Buffer at 4° C. for 15 minutes. Antibodies included mouse PE-anti-TLR4 (BioLegend, San Diego, Calif.) and APC-anti-Dectin-1 (Bio-Rad). Dead cells were excluded by Hoechst 33258 (Invitrogen, Carlsbad, Calif.) incorporation. Purified anti-FcγRIII/II (2.4G2, TONBO Bioscience, San Diego, Calif.) was used to block murine Fc-receptors at 4° C. for 10 minutes in all the stainings. Events were acquired using FACSCanto 3L (BD Biosciences). Data were analyzed with FlowJo software (Tree Star, Ashland, Oreg.).

In data set [2] the test system is human peripheral blood mononuclear cells (PBMCs). Briefly: Trained immunity in vitro model in human PBMCs, TNFα by ELISA after LPS. Type of data set: cell-based. The following applies: beta-glucan-trained human PBMCs, 10 μM 3AC, LPS stimulation. The method, then: Total PBMCs (5·10^5) were plated in 96-well plates (200-μl final volume) and stimulated with 100 μg/ml β-glucan for 24h. Then, cells were washed and rested 6 days in culture medium. At day 7, PBMCs were stimulated with 1 μg/ml LPS (EK). After 24h, supernatants were collected for TNFα measurement by ELISA (Human TNFα DuoSet, R&D Systems, Abingdon, UK). When required, PBMCs were pre-incubated for 30 minutes prior to β-glucan training with 10 μM 3AC. Inhibitor was also added together with the first wash-out, before the resting period.
as §1

The next data set deals with human PBMCs. Briefly: Viability of cells in human PBMC training scheme. It counts as cell-based. The following applies: non-trained cells in human PBMC experiment (not shown). The method, then:
To assess cell viability, 3·10^6 total PBMCs were plated in 24-well plates (1200-μl final volume, Corning) and followed the training scheme described here. At day 7, prior to LPS stimulation, cells were collected in PBS/EDTA and stained on ice-cold FACS Buffer for flow cytometry analysis.

The test system of a further data set is Candida albicans SC5314. Briefly: In vivo training followed by lethal systemic Candida albicans infection, survival. On the set-up: species or system mouse. The following applies: 0.11 mg 3AC i.p. days -8 and -7, lethal 2·10^6 C. albicans i.v. The method, then: Mice were trained with either two intraperitoneal (i.p.) injections of 1 mg β-glucan particles on days −7 and −4 or 2·10^4 Candida albicans intravenously (i.v) on day −7. Sterile PBS was used as control. One week later, mice were challenged with 5 μg E. coli LPS (serotype 055:B5, Sigma) i.p. and blood was collected 60 min later to assess the serum TNFα (Mouse TNFα DuoSet, R&D Systems). Alternatively, mice were lethally infected with 2·10^6 C. albicans i.v. and monitored daily for weight, general health and survival, following the institutional guidance. When required mice were i.p. treated with 0.11 mg 3AC on days −8 and −7.3AC was diluted in PBS 0.3% hydroxypropylcellulose (Sigma), used as control.

The target of the next data set is T1, SHIP-1 (Homo sapiens, UniProt Q92835).
T1 sequence (Q92835 1-1189): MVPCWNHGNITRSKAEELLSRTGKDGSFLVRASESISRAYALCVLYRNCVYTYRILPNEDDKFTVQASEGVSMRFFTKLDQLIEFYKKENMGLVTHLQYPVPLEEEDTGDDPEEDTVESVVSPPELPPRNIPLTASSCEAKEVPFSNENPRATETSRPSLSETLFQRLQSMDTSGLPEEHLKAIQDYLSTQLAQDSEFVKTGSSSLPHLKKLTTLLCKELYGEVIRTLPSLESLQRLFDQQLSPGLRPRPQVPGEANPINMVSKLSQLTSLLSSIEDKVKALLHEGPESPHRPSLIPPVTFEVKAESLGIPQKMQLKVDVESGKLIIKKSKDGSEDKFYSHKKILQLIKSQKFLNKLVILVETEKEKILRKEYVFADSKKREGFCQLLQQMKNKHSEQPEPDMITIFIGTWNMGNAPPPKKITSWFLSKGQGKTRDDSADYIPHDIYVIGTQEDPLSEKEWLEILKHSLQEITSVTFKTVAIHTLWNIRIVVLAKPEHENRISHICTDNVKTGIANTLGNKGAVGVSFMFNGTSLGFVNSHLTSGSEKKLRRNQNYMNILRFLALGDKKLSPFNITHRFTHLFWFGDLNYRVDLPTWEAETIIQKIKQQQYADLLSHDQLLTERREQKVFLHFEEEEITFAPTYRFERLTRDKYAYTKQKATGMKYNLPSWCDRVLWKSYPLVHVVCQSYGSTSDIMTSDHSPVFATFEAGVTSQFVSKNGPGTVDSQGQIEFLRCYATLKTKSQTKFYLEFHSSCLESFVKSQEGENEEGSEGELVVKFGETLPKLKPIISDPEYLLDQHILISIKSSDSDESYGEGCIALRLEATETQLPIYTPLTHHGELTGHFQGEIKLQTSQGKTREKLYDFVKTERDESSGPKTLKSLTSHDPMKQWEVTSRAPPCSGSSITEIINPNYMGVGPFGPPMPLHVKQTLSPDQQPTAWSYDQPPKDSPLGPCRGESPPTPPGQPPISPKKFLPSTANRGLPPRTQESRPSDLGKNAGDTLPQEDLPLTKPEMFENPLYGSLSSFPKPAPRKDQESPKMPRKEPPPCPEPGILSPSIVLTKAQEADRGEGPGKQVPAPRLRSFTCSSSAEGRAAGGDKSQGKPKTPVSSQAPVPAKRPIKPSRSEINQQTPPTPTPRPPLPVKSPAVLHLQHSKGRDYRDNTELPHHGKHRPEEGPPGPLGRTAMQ
Particulars: SHIP-1 inhibitor 3AC; value given in parentheses, no test described; cited from earlier work.

For the molecule `CC(C)CCC[C@@H](C)[C@H]1CC[C@H]2[C@@H]3CC[C@H]4C[C@H](N)CC[C@]4(C)[C@H]3CC[C@]12C` [3AC, 3α-aminocholestane], the “TNF-alpha production in supernatants” value in data set [1] (beta-glucan-trained BMDMs, different doses of 3AC 30 min before training and after wash-out, LPS challenge) is “boosted TNF-alpha production in a dose-dependent manner”; in data set [2] it was “boosted TNF-alpha production”. Further, the “survival of non-trained BMDMs” value in the data set with mouse BMDMs (5 day-long in vitro culture in the presence of 3AC) is “did not survive”. The “survival of trained BMDMs” value with mouse BMDMs (beta-glucan-trained, in the presence of 3AC) is given as “did not affect survival”. Besides, the “toxicity for non-trained cells” value with human PBMCs was “toxic”. For the same molecule, the “survival of non-trained mice” value in the data set on Candida albicans SC5314 is listed as “did not impact on the survival”. In addition, the “survival of Candida-trained mice” value in the data set with Candida albicans SC5314 (training 2·10^4 C. albicans i.v. day -7) is recorded as “improved the survival”. Moreover, the IC50 on SHIP-1 was 13.5 µM.

Turning to `O=C1Nc2ccc(I)cc2/C1=C/c1cc(Br)c(O)c(Br)c1` [GW5074], the “boost of trained immunity (TNF alpha) in absence of SHIP-1” value in data set [1] is “did not affect this process”.

Consider `CSC[C@H]1O[C@@H](n2cnc3c(N)ncnc32)[C@H](O)[C@@H]1O` [MTA, 5′-Deoxy-5′-(methylthio)adenosine], for which, in data set [1] (500 μM), the “TNF-alpha overproduction in trained LysMΔSHIP-1 BMDMs” value is listed as “inhibited the increase in TNF-alpha”.

`COc1cc(Nc2ncc(F)c(Nc3ccc4c(n3)NC(=O)C(C)(C)O4)n2)cc(OC)c1OC` [R406]: the “boost of trained immunity (TNF alpha) in absence of SHIP-1” value in data set [1] (1.5 μM) was “abolished the boost of trained immunity”.

Consider `C#CCN(C)Cc1ccccc1` [pargyline, Pargyline], for which the “TNF-alpha overproduction in trained LysMΔSHIP-1 BMDMs” value in data set [1] (6 μM) is recorded as “had no effect”.

As usually defined, the IC50 is the concentration that gives 50% inhibition.
